Values joined by “and” are separate entries in the source; they are usually repeats but may differ in a detail not shown here. Equal entries are not always repeated. Each block holds one compound with its values, some of them ahead of it.
Experiments:
dopamine D1 receptor = dopamine D1 receptor (Macaca mulatta (Rhesus macaque), UniProt O77680); assay: Affinity on dopamine D1 receptor, competition with [3H] SCH23390; format: binding; parameters: D1 receptor inhibition ratio (%): concentration or dose not given beside the values
Protocol: (§1) (1). Determination of the Affinity of Hexahydrodibenzo[a,g]Quinolizine Compound of General Formula I and Derivatives Thereof on Dopamine D1, Dopamine D2, 5-HT1A, and 5-HT2A Receptor.
(§2) 1) The Experimental Method
(§3) Different concentrations (10^−5 M-10^−11 M) of the compound of the invention and corresponding isotope receptor ligand as well as receptor protein were loaded into the reaction tube and incubated in 30° C. water bath for 60 minutes. The reaction was terminated in a refrigerator. The reaction mixture was put in a Millipore filter (millipore) cell sample collector, filtered through suction filtration using GF/C glass fiber filter paper, and dried. The resulting sample was placed into 0.5 mL tube. 500 μL liquid scintillation fluid was added and intensity of radioactivity was determined by counting.
(§4) (1) Construction of receptor and materials for cell culture: Escherichia coli. DH5α strain; insect virus transfer vector pVL1393 plasmid; BaculoGold linear Chinese baculovirus DNA, purchased from ParMingen company; mkD1RcDNA; rD2R cDNA; various restriction endonucleases, TaqDNA polymerase, T4 ligase, etc., LB medium; insect cell culture TNM-FH.
(§5) (2) the Experimental Materials for Receptor Binding
(§6) Firstly, the above […] are dissolved in DMSO and then diluted with double distilled water to the appropriate concentration (10^−5 M-10^−11 M).
(§7) (+) Butaclamo purchased from RBI company, GF/C glass fiber filter paper purchased from Whatman Co., scintillation fluid (dopamine D1, D2 receptors)/liposoluble scintillation fluid (5-HT1A, 5-HT2A receptor), Beckman LS-6500 multi-function liquid scintillation counter.

D2 dopamine receptor = D2 dopamine receptor (Rattus norvegicus (Rat), UniProt P61169); assay: Affinity on dopamine D2 receptor, competition with [3H] Spiperone; format: binding; parameters: D2 receptor inhibition ratio (%): concentration or dose not given beside the values
Protocol: as §1, §2, §3, §4, §5, §6, §7

[1] = In vivo pharmacokinetic experiment of rats (gavage and intravenous); parameters: species or system SD rats; details: rat
Protocol: Pharmacokinetic properties of Compound DC037029 in rats were preliminarily studied in this experiment. After the tested compound was delivered to rats by intravenous administration and intragastric administration, respectively, the whole blood samples were collected at different time point and the plasma was separated. The concentration of compound in plasma was determined by liquid chromatography-tandem mass spectrometry.
Six healthy male SD rats with the weight of 200-220 g were randomly divided into 2 groups, each of which has three rats. The rats in each group were administrated with the tested compound by gavage or intravenous injection, respectively.
The compound was dissolved in 10% DMSO/10% Tween/[…].
The rats are fasted for 12 h and can drink water ad libitum before test. 2 h after dosing, the rats ate all together. The time point for collecting blood samples and the sample processing are listed as follows.
Intragastric administration time: 0.25, 0.5, 1.0, 2.0, 3.0, 5.0, 7.0, 9.0 and 24 h after administration.
Intravenous administration time: 5 min, 0.25, 0.5, 1.0, 2.0, 3.0, 5.0, 7.0, 9.0 and 24 h after administration. At above time point, 0.3 ml venous blood was taken from retrobulbar venous plexus of the rat and loaded into heparinization tube. After centrifuged at 1000 rpm for 5 min, the plasma was separated and frozen at −20° C. in a refrigerator.

[2] = gavage 20 mg/kg, individual animals
[3] = intravenous injection 10 mg/kg, average
[4] = intravenous injection 10 mg/kg, individual animals

Chain of dopamine D1 receptor (O77680 whole entry): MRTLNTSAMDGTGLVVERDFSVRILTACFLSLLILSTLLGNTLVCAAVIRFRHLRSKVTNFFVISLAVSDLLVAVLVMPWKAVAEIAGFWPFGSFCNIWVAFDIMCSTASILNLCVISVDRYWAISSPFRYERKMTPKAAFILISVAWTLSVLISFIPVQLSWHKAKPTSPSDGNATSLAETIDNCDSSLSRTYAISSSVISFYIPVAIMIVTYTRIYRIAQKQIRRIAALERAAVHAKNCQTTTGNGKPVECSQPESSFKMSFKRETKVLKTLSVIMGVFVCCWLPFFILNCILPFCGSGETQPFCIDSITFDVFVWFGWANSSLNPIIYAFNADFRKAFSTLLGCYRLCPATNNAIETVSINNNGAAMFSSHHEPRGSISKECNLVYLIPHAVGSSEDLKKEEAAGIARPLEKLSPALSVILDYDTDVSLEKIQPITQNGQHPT
Chain of D2 dopamine receptor (P61169 whole entry): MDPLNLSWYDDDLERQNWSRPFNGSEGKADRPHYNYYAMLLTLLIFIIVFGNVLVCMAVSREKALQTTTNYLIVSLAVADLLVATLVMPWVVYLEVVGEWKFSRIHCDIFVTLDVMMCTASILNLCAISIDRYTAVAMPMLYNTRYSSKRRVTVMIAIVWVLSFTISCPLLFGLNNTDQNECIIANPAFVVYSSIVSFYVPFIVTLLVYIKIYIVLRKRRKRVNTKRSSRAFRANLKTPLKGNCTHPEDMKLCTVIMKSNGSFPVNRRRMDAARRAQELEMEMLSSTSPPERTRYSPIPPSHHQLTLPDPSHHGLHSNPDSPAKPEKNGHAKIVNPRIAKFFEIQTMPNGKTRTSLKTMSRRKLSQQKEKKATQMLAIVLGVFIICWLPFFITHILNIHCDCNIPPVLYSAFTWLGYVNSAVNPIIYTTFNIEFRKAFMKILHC

SMILES: COc1cc2c(cc1OC)C1Cc3cc(OC)c(OC)c(OC)c3CN1CC2 (racemic) [DC037002, (±)-2,3,9,10,11-pentamethoxyl-5,8,13,13a-tetrahydro-6H-dibenzo[a,g]quinolizine]
- D1 receptor inhibition ratio (%) (dopamine D1 receptor): 77.95%
- D2 receptor inhibition ratio (%) (D2 dopamine receptor): 27.05%

SMILES: COc1ccc2c(c1)CCN1Cc3c(cc(OC)c(OC)c3OC)CC21 (racemic) [DC037007, (±)-3,9,10,11-tetramethoxy-5,8,13,13a-tetrahydro-6H-dibenzo[a,g]quinolizine]
- D1 receptor inhibition ratio (%) (dopamine D1 receptor): 87.65%
- IC50 (dopamine D1 receptor): 2.03 µM
- Ki (dopamine D1 receptor): 1 µM
- D2 receptor inhibition ratio (%) (D2 dopamine receptor): 49.05%

SMILES: COc1ccc2c(c1)CCN1Cc3cc(OC)c(OC)cc3CC21 (racemic) [DC037009, (±)-3,10,11-trimethoxy-5,8,13,13a-tetrahydro-6H-dibenzo[a,g]quinolizine]
- D1 receptor inhibition ratio (%) (dopamine D1 receptor): −13.6%
- D2 receptor inhibition ratio (%) (D2 dopamine receptor): 0.35%

SMILES: COc1cc2c(cc1OC)[C@@H]1Cc3cc(OC)c(OC)c(OC)c3CN1CC2 [DC037006, S-(−)-2,3,9,10,11-pentamethoxyl-5,8,13,13a-tetrahydro-6H-dibenzo[a,g]quinolizine]
- D1 receptor inhibition ratio (%) (dopamine D1 receptor): 91.75%
- IC50 (dopamine D1 receptor): 0.648 µM
- Ki (dopamine D1 receptor): 0.32 µM
- D2 receptor inhibition ratio (%) (D2 dopamine receptor): 48.0%

SMILES: COc1ccc(OC)c2c1C[C@H]1c3cc4c(cc3CCN1C2)OCO4 [DC037013, S-(−)-2,3-methylenedioxy-9,12-bimethoxy-5,8,13,13a-tetrahydro-6H-dibenzo[a,g]quinolizine]
- IC50 (dopamine D1 receptor): 0.0479 µM
- Ki (dopamine D1 receptor): 0.0236 µM

SMILES: COc1cc2c(cc1O)[C@@H]1Cc3cc4c(cc3CN1CC2)OCO4 [DC037029, S-(−)-2-hydroxy-3-methoxy-10,12-methylenedioxy-5,8,13,13a-tetrahydro-6H-dibenzo[a,g]quinolizine]
- IC50 (dopamine D1 receptor): 0.00819 µM
- Ki (dopamine D1 receptor): 0.0042 µM
- affinity on dopamine D1 receptor (in words) (dopamine D1 receptor; summary of the tables): strong affinity
- F (absolute bioavailability) ([1]; gavage 20 mg/kg): 34.2%
- Plasma concentration ([1]; gavage 20 mg/kg, 0.25 h, average): 0.392 µg/mL
- Plasma concentration ([1]; gavage 20 mg/kg, 0.25 h, individual animals): 0.268 µg/mL and 0.416 µg/mL and 0.493 µg/mL
- Plasma concentration ([1]; gavage 20 mg/kg, 0.5 h, average): 0.445 µg/mL
- Plasma concentration ([1]; gavage 20 mg/kg, 0.5 h, individual animals): 0.289 µg/mL and 0.494 µg/mL and 0.553 µg/mL
- Plasma concentration ([1]; gavage 20 mg/kg, 1.0 h, average): 0.42 µg/mL
- Plasma concentration ([1]; gavage 20 mg/kg, 1.0 h, individual animals): 0.23 µg/mL and 0.455 µg/mL and 0.575 µg/mL
- Plasma concentration ([1]; gavage 20 mg/kg, 2.0 h, average): 0.345 µg/mL
- Plasma concentration ([1]; gavage 20 mg/kg, 2.0 h, individual animals): 0.218 µg/mL and 0.326 µg/mL and 0.492 µg/mL
- Plasma concentration ([1]; gavage 20 mg/kg, 3.0 h, average): 0.289 µg/mL
- Plasma concentration ([1]; gavage 20 mg/kg, 3.0 h, individual animals): 0.231 µg/mL and 0.207 µg/mL and 0.431 µg/mL
- Plasma concentration ([1]; gavage 20 mg/kg, 5.0 h, average): 0.266 µg/mL
- Plasma concentration ([1]; gavage 20 mg/kg, 5.0 h, individual animals): 0.233 µg/mL and 0.236 µg/mL and 0.33 µg/mL
- Plasma concentration ([1]; gavage 20 mg/kg, 7.0 h, average): 0.122 µg/mL
- Plasma concentration ([1]; gavage 20 mg/kg, 7.0 h, individual animals): 0.169 µg/mL and 0.0803 µg/mL and 0.118 µg/mL
- Plasma concentration ([1]; gavage 20 mg/kg, 9.0 h, average): 0.0822 µg/mL
- Plasma concentration ([1]; gavage 20 mg/kg, 9.0 h, individual animals): 0.0919 µg/mL and 0.0413 µg/mL and 0.113 µg/mL
- Plasma concentration ([1]; gavage 20 mg/kg, 24.0 h, average): 0.00428 µg/mL
- Plasma concentration ([1]; gavage 20 mg/kg, 24.0 h, individual animals): 0.00967 µg/mL and 0.00126 µg/mL and 0.0019 µg/mL
- AUC0-t ([1]; gavage 20 mg/kg, average): 2.867 ± 0.798 µg·h/mL and 2.867 µg·h/mL
- AUC0-∞ ([1]; gavage 20 mg/kg, average): 2.891 µg·h/mL
- Cmax ([1]; gavage 20 mg/kg, average): 0.453 ± 0.147 µg/mL and 0.453 µg/mL
- MRT ([1]; gavage 20 mg/kg, average): 5.04 h
- Tmax ([1]; gavage 20 mg/kg, average): 0.67 ± 0.29 h and 0.67 h
- t1/2 ([1]; gavage 20 mg/kg, average): 3.26 ± 0.82 h and 3.26 h
- AUC0-t [1, 2]: 3.771 µg·h/mL and 2.57 µg·h/mL and 2.26 µg·h/mL
- AUC0-∞ [1, 2]: 3.779 µg·h/mL and 2.629 µg·h/mL and 2.265 µg·h/mL
- Cmax [1, 2]: 0.575 µg/mL and 0.289 µg/mL and 0.494 µg/mL
- MRT [1, 2]: 4.67 h and 6.45 h and 4.00 h
- Tmax [1, 2]: 1.00 h and 0.50 h (2×)
- t1/2 [1, 2]: 2.70 h and 4.20 h and 2.89 h
- Plasma concentration ([1]; intravenous injection 10 mg/kg, 0.083 h, average): 4.194 µg/mL
- Plasma concentration ([1]; intravenous injection 10 mg/kg, 0.083 h, individual animals): 4.576 µg/mL and 4.169 µg/mL and 3.837 µg/mL
- Plasma concentration ([1]; intravenous injection 10 mg/kg, 0.25 h, average): 2.883 µg/mL
- Plasma concentration ([1]; intravenous injection 10 mg/kg, 0.25 h, individual animals): 3.01 µg/mL and 2.766 µg/mL and 2.874 µg/mL
- Plasma concentration ([1]; intravenous injection 10 mg/kg, 0.5 h, average): 1.942 µg/mL
- Plasma concentration ([1]; intravenous injection 10 mg/kg, 0.5 h, individual animals): 2.055 µg/mL and 1.788 µg/mL and 1.984 µg/mL
- Plasma concentration ([1]; intravenous injection 10 mg/kg, 1.0 h, average): 1.207 µg/mL
- Plasma concentration ([1]; intravenous injection 10 mg/kg, 1.0 h, individual animals): 1.211 µg/mL and 1.047 µg/mL and 1.365 µg/mL
- Plasma concentration ([1]; intravenous injection 10 mg/kg, 2.0 h, average): 0.571 µg/mL
- Plasma concentration ([1]; intravenous injection 10 mg/kg, 2.0 h, individual animals): 0.59 µg/mL and 0.527 µg/mL and 0.596 µg/mL
- Plasma concentration ([1]; intravenous injection 10 mg/kg, 3.0 h, average): 0.255 µg/mL
- Plasma concentration ([1]; intravenous injection 10 mg/kg, 3.0 h, individual animals): 0.228 µg/mL and 0.294 µg/mL and 0.243 µg/mL
- Plasma concentration ([1]; intravenous injection 10 mg/kg, 5.0 h, average): 0.0753 µg/mL
- Plasma concentration ([1]; intravenous injection 10 mg/kg, 5.0 h, individual animals): 0.065 µg/mL and 0.0837 µg/mL and 0.0772 µg/mL
- Plasma concentration ([1]; intravenous injection 10 mg/kg, 7.0 h, average): 0.0207 µg/mL
- Plasma concentration ([1]; intravenous injection 10 mg/kg, 7.0 h, individual animals): 0.0192 µg/mL and 0.0211 µg/mL and 0.0217 µg/mL
- Plasma concentration ([1]; intravenous injection 10 mg/kg, 9.0 h, average): 0.008 µg/mL
- Plasma concentration ([1]; intravenous injection 10 mg/kg, 9.0 h, individual animals): 0.00731 µg/mL and 0.00926 µg/mL and 0.00741 µg/mL
- Plasma concentration ([1]; intravenous injection 10 mg/kg, 24.0 h, average): 0.00176 µg/mL
- Plasma concentration ([1]; intravenous injection 10 mg/kg, 24.0 h, individual animals): 0.00226 µg/mL and 0.00161 µg/mL and 0.00141 µg/mL
- AUC0-t [1, 3]: 4.196 ± 0.141 µg·h/mL and 4.196 µg·h/mL
- AUC0-∞ [1, 3]: 4.21 µg·h/mL
- CLz (plasma clearance rate CL) [1, 3]: 2.38 ± 0.08 L/h/kg and 2.38 L/h/kg
- MRT [1, 3]: 1.47 h
- Vss (steady state distribution volume) [1, 3]: 3.49 ± 0.24 L/kg and 3.49 L/kg
- t1/2 [1, 3]: 5.44 ± 0.85 h and 5.44 h
- AUC0-t [1, 4]: 4.262 µg·h/mL and 4.292 µg·h/mL and 4.034 µg·h/mL
- AUC0-∞ [1, 4]: 4.272 µg·h/mL and 4.313 µg·h/mL and 4.046 µg·h/mL
- CLz [1, 4]: 2.34 L/h/kg and 2.32 L/h/kg and 2.47 L/h/kg
- MRT [1, 4]: 1.42 h and 1.46 h and 1.53 h
- Vss [1, 4]: 3.33 L/kg and 3.38 L/kg and 3.78 L/kg
- t1/2 [1, 4]: 4.88 h and 6.42 h and 5.01 h

Second part, the compound after the results:

- D1 receptor inhibition ratio (%) (dopamine D1 receptor): 58.95%
- D2 receptor inhibition ratio (%) (D2 dopamine receptor): 14.7%
SMILES: COc1cc2c(cc1OC)CN1CCc3cc(OC)c(OC)cc3C1C2 (racemic) [DC037001, (±)-2,3,10,11-tetramethoxy-5,8,13,13a-tetrahydro-6H-dibenzo[a,g]quinolizine]

- D1 receptor inhibition ratio (%) (dopamine D1 receptor): 58.2%
- D2 receptor inhibition ratio (%) (D2 dopamine receptor): 25.8%
SMILES: COc1cc2c(cc1OC)C1Cc3cc4c(cc3CN1CC2)OCO4 (racemic) [DC037014, (±)-2,3-bimethoxy-10,11-methylenedioxy-5,8,13,13a-tetrahydro-6H-dibenzo[a,g]quinolizine]

- D1 receptor inhibition ratio (%) (dopamine D1 receptor): 56.5%
- D2 receptor inhibition ratio (%) (D2 dopamine receptor): 44.5%
SMILES: COc1cc2c(cc1OC)CN1CCc3cc4c(cc3C1C2)OCO4 (racemic) [DC037021, (±)-2,3-methylenedioxy-10,11-bimethoxy-5,8,13,13a-tetrahydro-6H-dibenzo[a,g]quinolizine]

- D1 receptor inhibition ratio (%) (dopamine D1 receptor): 89.0%
- IC50 (dopamine D1 receptor): 1.01 µM
- Ki (dopamine D1 receptor): 0.498 µM
- D2 receptor inhibition ratio (%) (D2 dopamine receptor): 10.6%
SMILES: COc1cc2c(cc1OC)C1Cc3cc(O)c(O)cc3CN1CC2 (racemic) [DC037022, (±)-2,3-bimethoxy-10,11-bihydroxy-5,8,13,13a-tetrahydro-6H-dibenzo[a,g]quinolizine]
